Reference: patent US9261498B2, “Biomarker for sensitivity to mTOR inhibitor therapy in kidney cancer” (The Regents of the University of California, priority 2005, dated 2016)
Entries after “also recorded” stand apart in the source; their conditions may differ.

Columns and labels:
HIF-1α = experiment: Immunoblot of HIF-1α protein in VHL knockdown RCC cells; format: cell-based, human; conditions: 1 and 10 nM CCI-779, 24 hours
Description: (§1) (a) SN12C-CSCG and SN12C-VHLshRNA cell were treated with vehicle, 1 nM or 10 nM of CCI-779 and lysed 24 hours later. Lysates were subjected to immunoblotting for HIF-1α, HIF-2α, GLUT-1, CA-IX, p-eIF4G, p-S6 Ribosomal protein. Equal protein loading was verified using anti-β-actin antibody. (b) HIF-1α expression was probed by immunoblotting in SN12C-MSCV-5′TOP-HIF-1α cDNA (left panel) and SN12C-MSCV-HIF-1α cDNA (tight panel) post 24 hours of vehicle, 1 nM or 10 nM of CCI-779.
(§2) Cells and xenograft tumors were lysed in ECB lysis buffer (see, e.g. Kondo et al., Cancer Cell 1, 237-46 (2002)) or high-detergent buffer (2% SDS), (see, e.g. Chen et al., Nat Med 10, 33-9 (2004)), respectively, supplemented with complete protease and phosphatase inhibitor cocktails (Calbiochem). […] Bound antibody was detected using enhanced chemiluminescence (ECL, Amersham). For VEGF ELISA quantification, cells were plated in 6 well plates (1×10^5 per well). […] Thirty-six hours later, VEGF ELISA (R&D Systems) was performed according to the manufacturer's instructions, using a Fisher Plate reader. […]
Cells and xenograft tumors were lysed in ECB lysis buffer or high-detergent buffer (2% SDS), respectively, supplemented with complete protease and phosphatase inhibitor cocktails (Calbiochem). […] Bound antibody was detected using enhanced chemiluminescence (ECL, Amersham). […]

mTOR = experiment: Immunoblot of p-S6 and p-eIF4G in cell lysates (mTOR activity); format: cell-based, human
Description: as §1
FIGS. 4A-4C. Rescue of CCI-779 growth suppression by HIF-1-α and HIF-2-α prolyl hydcroxylase mutants. […] Cell growth was measured by cell counts (n=3). […]
as §2

CO[C@H]1C[C@@H]2CC[C@@H](C)[C@@](O)(O2)C(=O)C(=O)N2CCCC[C@H]2C(=O)O[C@H]([C@H](C)C[C@@H]2CC[C@@H](OC(=O)C(C)(CO)CO)[C@H](OC)C2)CC(=O)[C@H](C)/C=C(\C)[C@@H](O)[C@@H](OC)C(=O)[C@H](C)C[C@H](C)/C=C/C=C/C=C/1C [CCI-779]
HIF-1α protein levels (HIF-1α): dramatically reduced; also recorded: reduction; also recorded: decrease
phosphorylation of S6 and eIF4G (mTOR; VHL knockdown cells expressing HIF-1α/HIF-2α mutants): decreased phosphorylation
phosphorylation of S6 and eIF4G (mTOR; parental and VHL knockdown cells, 1 and 10 nM CCI-779): reduced phosphorylation; also recorded: reduction in phosphorylation
